Laboratory results: patent publication US6013649A, “Thiol sulfone metalloprotease inhibitors” (Monsanto Company, priority 1997, dated 2000)

Key:
hMMP 13 = target: T1, hMMP 13 (Homo sapiens, UniProt P45452); assay: In vitro metalloprotease inhibition, fluorogenic peptide substrate (recombinant human MMP-13, APMA activated); format: biochemical; conditions: recombinant human MMP-13, room temperature, pH 7.5, 4 μM substrate
T1 construct: made in house
Experimental: (§1) Briefly, 4-aminophenylmercuric acetate (APMA) or trypsin activated MMPs were incubated with various concentrations of the inhibitor compound at room temperature for 5 minutes (0.02% 2-mercaptoethanol added to buffer for thiol compounds with 5 minutes or overnight incubation).
(§2) More specifically, recombinant human MMP-13 and MMP-1 enzymes were prepared in laboratories of the assignee. MMP-13 was expressed in baculovirus as a proenzyme, and purified first over a heparin agarose column and then over a chelating zinc chloride column. The proenzyme was activated by APMA for use in the assay. MMP-1 expressed in transfected HT-1080 cells was provided by Dr. Howard Welgus of Washington University, St. Louis, Mo. The enzyme was also activated using APMA and was then purified over a hydroxamic acid column.
(§3) The enzyme substrate is a methoxycoumarin-containing polypeptide having the following sequence:
(§4) MCA-ProLeuGlyLeuDpaAlaArgNH^2, wherein MCA is methoxycoumarin and Dpa is 3-(2,4--dinitrophenyl)-L-2,3-diaminopropionyl alanine.
(§5) Assays were carried out at room temperature, and dimethyl sulfoxide (DMSO) at a final concentration of 1 percent was used to dissolve inhibitor compound.
(§6) The assayed inhibitor compound in DMSO/buffer solution was compared to an equal amount of DMSO/buffer with no inhibitor as control using Microfluor™ White Plates (Dynatech). The inhibitor or control solution was maintained in the plate for 10 minutes and the substrate was added to provide a final concentration of 4 μM.
(§7) Inhibition was measured as a reduction in fluorescent intensity as a function of inhibitor concentration, using a Perkin Elmer L550 plate reader. The IC50 values were calculated from those values.

hMMP 1 = target: T2, hMMP 1 (Homo sapiens, UniProt P03956); assay: In vitro metalloprotease inhibition, fluorogenic peptide substrate (recombinant human MMP-1, APMA activated); format: biochemical; conditions: human MMP-1, room temperature, pH 7.5, 4 μM substrate
T2 construct: host or cells: transfected HT-1080 cells
T2 sequence (P03956 100-469): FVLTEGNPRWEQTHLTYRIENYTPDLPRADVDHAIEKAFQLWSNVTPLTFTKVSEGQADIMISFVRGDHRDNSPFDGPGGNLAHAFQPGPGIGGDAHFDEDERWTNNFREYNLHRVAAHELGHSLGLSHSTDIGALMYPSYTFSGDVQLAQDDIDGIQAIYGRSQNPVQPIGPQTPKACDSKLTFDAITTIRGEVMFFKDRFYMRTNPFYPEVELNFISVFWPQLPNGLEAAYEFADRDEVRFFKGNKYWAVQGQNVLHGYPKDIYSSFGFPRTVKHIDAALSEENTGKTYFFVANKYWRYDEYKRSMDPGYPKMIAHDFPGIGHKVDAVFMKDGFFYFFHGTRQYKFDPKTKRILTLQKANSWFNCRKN
Experimental: as §1, §2, §3, §4, §5, §6, §7

[1] = system: neovascularization of the corneal stroma; assay: In vivo angiogenesis assay (corneal micropocket assay, bFGF pellet); design: species or system mouse (C57Bl/6 female); conditions: 50 mg/kg bid, po, day five, mouse cornea
Experimental: The study of angiogenesis depends on a reliable and reproducible model for the stimulation and inhibition of a neovascular response. The corneal micropocket assay provides such a model of angiogenesis in the cornea of a mouse. See, A Model of Angiogenesis in the Mouse Cornea; Kenyon, BM, et al., Investigative Ophthalmology & Visual Science, July 1996, Vol. 37, No. 8.
In this assay, uniformly sized Hydron™ pellets containing bFGF and sucralfate were prepared and surgically implanted into the stroma mouse cornea adjacent to the temporal limbus. […]
Mice were dosed on a daily basis for the duration of the assay. […] At day five, the degree of angiogenic inhibition was scored by viewing the neovascular progression with a slit lamp microscope.
The mice were anesthetized and the studied eye was once again proptosed. The maximum vessel length of neovascularization, extending from the limbal vascular plexus toward the pellet was measured. In addition, the contiguous circumferential zone of neovascularization was measured as clock hours, where 30 degrees of arc equals one clock hour. The area of angiogenesis was calculated as follows. […]
The studied mice were thereafter compared to control mice and the difference in the area of neovascularization was recorded.

SMILES | IC50 (hMMP 13) [nM] | IC50 (hMMP 1) [nM] | inhibition (difference in area of neovascularization vs control mice) [1] [%]
COc1ccc(S(=O)(=O)C(C)CCS)cc1 (stereo not drawn) [Example 19, 3-[(4-methoxyphenyl)sulfonyl]-butane-1-thiol] | 200 | 7000 | 
CCCCCCCCCC(CCS)S(=O)(=O)c1ccc(OC)cc1 (stereo not drawn) [Example 17, 3-[(4-methoxyphenyl)sulfonyl]-dodecane-1-thiol] | 210 | > 10000 | 
COc1ccc(S(=O)(=O)CCS)cc1 [Example 34, 1-[(4-methoxyphenyl)sulfonyl]ethane-2-thiol] | 200 | 8000 | 
O=S(=O)(CCCS)c1ccc(OCCCc2ccccc2)cc1 [Example 4, 3-[(4-{3-phenylpropyloxy)phenyl}sulfonyl]-propanethiol] | 1000 | > 10000 | 
O=S(=O)(CCCS)c1ccccc1 [Example 30, 3-(phenylsulfonyl)propane-1-thiol] | 900 | > 10000 | 
CCCOc1ccc(S(=O)(=O)CCCS)cc1 [Example 29, 3-[(4-propoxyphenyl)sulfonyl]propanethiol] | 55 | 10000 | 
COc1ccc(S(=O)(=O)CCCS)cc1 [Example 13, 3-[(4-methoxyphenyl)sulfonyl]propane-1-thiol] | 70 | 8000 | 
COc1ccc(S(=O)(=O)C[C@@H](C)CS)cc1 [Example 3, 3-[(4-methoxyphenyl)sulfonyl]-2(S)-methylpropanethiol] |  | > 10000 | 
CCCC[C@]1(S(=O)(=O)c2ccc(OC)cc2)CCC[C@@H](S)C1 [Example 8, (R,S)3-butyl-3-[(4-methoxyphenyl)sulfonyl]cyclohexanethiol] | 1300 | > 10000 | 
CCCCOc1ccc(S(=O)(=O)CCCS)cc1 [Example 27, 3-[(4-butoxyphenyl)sulfonyl]propane-1-thiol] | 40 | > 10000 | 
COc1ccc(S(=O)(=O)CCCCS)cc1 [Example 25, 4-[(4--methoxyphenyl)sulfonyl]butane-1-thiol] | 700 | > 10000 | 
COc1ccc(S(=O)(=O)CCC(C)S)cc1 (racemic) [Example 2, (R,S)-4-[(4-methoxyphenyl)-sulfonyl]butane-2-thiol] | 33 | 8000 | 
O=S(=O)(c1ccc(Sc2ccccc2)cc1)[C@@H]1CCC[C@@H](S)C1 (relative stereo) [Example 38, (R,S)trans-3-[(phenylthio)phenylsulfonyl]cyclohexanethiol] |  | > 10000 | 
CC(C)(C)OC(=O)COc1ccc(S(=O)(=O)CCCS)cc1 [Example 5] | 400 | > 10000 | 
O=S(=O)(CCCS)c1ccc(-c2ccccc2)cc1 [Example 37, 3-[(4-phenyl)phenylsulfonyl]propane-1-thiol] | 170 | > 10000 | 
CCCCOc1ccc(S(=O)(=O)C(CCS)Cc2ccccc2)cc1 (stereo not drawn) [Example 28, 3-[(4-butoxyphenyl)sulfonyl]-4-phenylbutane-1-thiol] | 1.5 | 9000 | 
COc1ccc(CS(=O)(=O)CCCS)cc1 [Example 11, (R,S)-3-[(4-methoxybenzyl)-sulfonyl]propane thiol] | > 10000 | > 10000 | 
O=C(O)COc1ccc(S(=O)(=O)CCCS)cc1 [Example 6] | > 10000 | > 10000 | 
COc1ccc(S(=O)(=O)CC(C)(C)CS)cc1 [Example 15, 3-[(4-methoxyphenyl)sulfonyl]-2,2-dimethylpropane-1-thiol] | 700 |  | 
COc1ccc(S(=O)(=O)C2CCC(S)C2)cc1 (stereo not drawn) [Example 9] | 500 |  | 
COc1ccc(S(=O)(=O)C[C@H](C)CS)cc1 [Example 14, 3-[(4-methoxyphenyl)sulfonyl]-2R-methylpropane-1-thiol] | 190 | 6500 | 

Second part, led by results:

IC50 (hMMP 13) [nM] | IC50 (hMMP 1) [nM] | SMILES | inhibition (difference in area of neovascularization vs control mice) [1] [%]
42 | 900 | COc1ccc(S(=O)(=O)CC(CS)NC(=O)CNC(=O)OCc2ccccc2)cc1 (racemic) [Example 33, 2-R,S-(N-carbobenzyloxy-glycyl)amino-3-(4-methoxybenzenesulfonyl)propanethiol] | 
0.5 | 1100 | CCCCCC(CCS)S(=O)(=O)c1ccc(OC)cc1 (stereo not drawn) [Example 22, 3-[(4-methoxyphenyl)sulfonyl]-octane-1-thiol] | 
0.2 | 370 | O=C(NCCN1CCOCC1)C(S)CCS(=O)(=O)c1ccc(Oc2ccccc2)cc1 (stereo not drawn) [Example 39] | 51
4 | 600 | CCC(CCS)S(=O)(=O)c1ccc(OC)cc1 (stereo not drawn) [Example 16, 3-[(4-methoxyphenyl)sulfonyl]-pentane-1-thiol] | 
48 | 3500 | COc1ccc(S(=O)(=O)CCC(S)c2ccccc2)cc1 (stereo not drawn) [Example 24, 3-[(4-methoxyphenyl)sulfonyl]-1-phenylpropane-1-thiol] | 
0.6 | 2400 | O=S(=O)(CCCS)c1ccc(Oc2ccccc2)cc1 [Example 36, 3-[(4-phenoxy)phenylsulfonyl]propane-1-thiol] | 
70 | 4000 | COc1ccc(S(=O)(=O)CC(CS)NC(C)=O)cc1 (stereo not drawn) [Example 32, N-[1-(mercaptomethyl)-2-[(4-methoxyphenyl)sulfonyl)ethyl)acetamide] | 
 | 1000 | COc1ccc(S(=O)(=O)[C@@H]2CCC[C@@H](S)C2)cc1 (relative stereo) [Example 7, (R,S)trans-3-[(4-methoxyphenyl)sulfonyl]cyclohexanethiol] | 
7 | 1500 | CCCC(CCS)S(=O)(=O)c1ccc(OC)cc1 (stereo not drawn) [Example 20, 3-[(4-methoxyphenyl)sulfonyl]hexane-1-thiol] | 
15 | 4000 | COC(=O)C(S)CCS(=O)(=O)c1ccc(OC)cc1 (racemic) [Example 10, (R,S)-Methyl-4-[(4-methoxyphenyl)sulfonyl]-2-mercaptobutanoate] | 
 | 60 | COc1ccc(S(=O)(=O)C(CCS)Cc2ccccc2)cc1 (stereo not drawn) [Example 18, 3-[(4-methoxyphenyl)sulfonyl]-4-phenylbutane-1-thiol] | 
400 | 4000 | COc1ccc(S(=O)(=O)CC(C)S)cc1 (racemic) [Example 1, (R,S)1-[(4-methoxyphenyl)-sulfonyl]propane-2-thiol] | 
35 | 4750 | CNC(=O)CC(CCS)S(=O)(=O)c1ccc(OC)cc1 (stereo not drawn) [Example 31] | 
